The values below come from patent US7083959B2, “Therapeutic suppression of specific immune responses by administration of oligomeric forms of antigen of controlled chemistry” (The Johns Hopkins University, priority 1983, dated 2006).

Where no end group is shown, it is not given here.

The test system of one test is CAF1/J mice. As to the kind of experiment: Immunogenicity of monomeric and polymerized BSA or OVA without adjuvant, serum ELISA. The test is classed as in vivo. The note with it: for serum anti-BSA IgM response: day 6, injected in saline without adjuvant, FIG. 40; for IgM and IgG anti-protein responses: administered without adjuvant. Here is the method: The molecular weight for each fraction was then determined by the use of the Model E analytical ultracentrifuge under equilibrium conditions. During this prolonged series of slow fractionation steps, molecules which were unstable to any of the many steps involved in processing, handling, or storage were fractionated away from the samples, yielding a series of preparations, each of which contained a relatively narrow range of molecular sizes of substantial time stability. These water soluble preparations were then injected into mice intra-peritoneally, without the use of any adjuvant, in order to determine their relative immunogenicity. The level of immune response was determined by measuring serum IgM or IgG antibody levels against BSA or OVA by standard solid state ELISA technique.

The next test concerns anti-104 antibodies. In words: Share of anti-104 antibodies directed against 159, direct binding ELISA and competition assay. Details: species or system mice. The source says: However this peptide can be recognized by B cells since BSA conjugates raise good antibody responses to 159. Furthermore, as mentioned above, a substantial portion of antibodies raised by the 104-conjugates are directed against 159 as indicated both by direct binding in ELISA assay and by competition assay using free 159 to inhibit binding of anti-104 antibodies to 104-gelatin.

The test system of test [1] is Sera obtained from (NZBxNZW) F1 mice. As to the kind of experiment: Epitope mapping: binding of lupus mouse sera to histone H2B peptides. The source says:
This identification process, referred to herein as “epitope mapping”, involves the synthesis of various overlapping peptide fragments which are subsequently analyzed to establish regions of antigenicity. Clearly, the study of the entire H2B structure (125 amino acids) would require a very large amount of peptide synthesis. However, it is known from studies of SLE patients and mice with lupus-like disease that removal of the H2B N-terminal region with trypsin results in a loss of antigenicity (Portanova, J. P., et. al., J. Immunol. 38, 446–457, (1987)). Attention was, therefore, focussed on the synthesis of peptides derived from this region of histone H2B.

As for “BSA 70-mer: soluble highly polymerized BSA containing 70 BSA monomers, carbodiimide cross-linked (5000 kD)”, the “serum anti-BSA IgM response” value in the test on CAF1/J mice was “capable of raising IgM antibodies even at very low doses”.

With “N-Ac-Cys-(ε-ACA)-Glu-Ala-His^331-Ala-Glu-Ile-Asn-Glu-Ala-Gly-Arg^339-CONH2 ({Ac-Cys-ε‑ACA}-EAHAEINEAGR-NH2; listed as Mus musculus) [compound 159, represents residues 331–339 of chicken ovalbumin (OVA)]”, the “share of antibody response to 104 attributed to 159” value in the test on anti-104 antibodies (104 arrayed on dextran or BSA) is on record as 40–50%. Moreover, the “share of 104 response competed with soluble 159” value with anti-104 antibodies (solution phase competition assays (data not shown)) is recorded as “up to 40%”.

As for “N-Acetyl-Ala-Pro-Lys-Lys-Gly-Ser-Lys-Lys-Ala-Val-Thr-Lys-Ala-Gln-Lys-Cys-CONH2 (Ac-APKKGSKKAVTKAQKC-NH2) [Lupus 4′]”, in test [1], the “binding of sera to peptide” value was “not”.

For the molecule “N-Acetyl-Cys-Ala-Pro-Lys-Lys-Gly-Ser-Lys-Lys-Ala-Val-Thr-Lys-Ala-Gln-Lys-CONH2 (Ac-CAPKKGSKKAVTKAQK-NH2) [Lupus 3′]”, in test [1], the “binding of sera to peptide” value was “not”.

Regarding “N-Acetyl-Cys-Lys-Ala-Val-Thr-Lys-Ala-Gln-Lys-Lys-Asp-Gly-Lys-Lys-Arg-Lys-CONH2 (Ac-CKAVTKAQKKDGKKRK-NH2) [Lupus 5′]”, the “binding of sera to peptide” value in test [1] was “not”.

On to “Polymeric BSA: BSA polymerized to itself through a water soluble carbodiimide, size fractionated”, for which the “IgM and IgG anti-protein responses” value with CAF1/J mice was “considerable”.

Turning to “Pro-Glu-Pro-Ala-Lys-Ser-Ala-Pro-Ala-Pro-Lys-Lys-Gly-Ser-Lys-Cys-CONH2 (PEPAKSAPAPKKGSKC-NH2) [Lupus 2′]”, the “binding of sera to peptide” value in test [1] is given as “bind strongly”.

For the molecule “monomeric BSA: monomeric (68 kD) bovine serum albumin [reference compound]”, in the test on CAF1/J mice, the “serum anti-BSA IgM response” value is “requires substantially higher doses”. In addition, the “anti-BSA IgG response” value in the test with CAF1/J mice (repeated injections in saline at doses up to 100 μg, FIG. 43) is “not very effective”.

B1: Polymeric OVA: OVA polymerized to itself by glutaraldehyde, size fractionated (protein, UniProt P01012 2-386, looked up)
Ovalbumin: GSIGAASMEFCFDVFKELKVHHANENIFYCPIAIMSALAMVYLGAKDSTRTQINKVVRFDKLPGFGDSIEAQCGTSVNVHSSLRDILNQITKPNDVYSFSLASRLYAEERYPILPEYLQCVKELYRGGLEPINFQTAADQARELINSWVESQTNGIIRNVLQPSSVDSQTAMVLVNAIVFKGLWEKAFKDEDTQAMPFRVTEQESKPVQMMYQIGLFRVASMASEKMKILELPFASGTMSMLVLLPDEVSGLEQLESIINFEKLTEWTSSNVMEERKIKVYLPRMKMEEKYNLTSVLMAMGITDVFSSSANLSGISSAESLKISQAVHAAHAEINEAGREVVGSAEAGVDAASVSEEFRADHPFLFCIKHIATNAVLFFGRCVSP
modifications: glutaraldehyde self-polymerized
notes: OVA polymerized to itself by glutaraldehyde, size fractionated
Regarding B1, the “IgM and IgG anti-protein responses” value in the test on CAF1/J mice is “considerable”.
